The values below come from paper PMC11585513, “A novel ACE inhibitory peptide from Pelodiscus sinensis Wiegmann meat water-soluble protein hydrolysate” (Amino Acids, 2024).

Like-named read-outs stand apart in the source and are kept apart here. Peptide text beside a SMILES is read from it.

The target in test [1] is T1, ACE (Oryctolagus cuniculus, UniProt P12822).
T1 construct: ACE (1U, derived from rabbit lung, CAS 207386-83-2); purchased Sigma-Aldrich Co. (St. Louis, MO, USA); host or cells: rabbit lung
T1 sequence (P12822 34-1310): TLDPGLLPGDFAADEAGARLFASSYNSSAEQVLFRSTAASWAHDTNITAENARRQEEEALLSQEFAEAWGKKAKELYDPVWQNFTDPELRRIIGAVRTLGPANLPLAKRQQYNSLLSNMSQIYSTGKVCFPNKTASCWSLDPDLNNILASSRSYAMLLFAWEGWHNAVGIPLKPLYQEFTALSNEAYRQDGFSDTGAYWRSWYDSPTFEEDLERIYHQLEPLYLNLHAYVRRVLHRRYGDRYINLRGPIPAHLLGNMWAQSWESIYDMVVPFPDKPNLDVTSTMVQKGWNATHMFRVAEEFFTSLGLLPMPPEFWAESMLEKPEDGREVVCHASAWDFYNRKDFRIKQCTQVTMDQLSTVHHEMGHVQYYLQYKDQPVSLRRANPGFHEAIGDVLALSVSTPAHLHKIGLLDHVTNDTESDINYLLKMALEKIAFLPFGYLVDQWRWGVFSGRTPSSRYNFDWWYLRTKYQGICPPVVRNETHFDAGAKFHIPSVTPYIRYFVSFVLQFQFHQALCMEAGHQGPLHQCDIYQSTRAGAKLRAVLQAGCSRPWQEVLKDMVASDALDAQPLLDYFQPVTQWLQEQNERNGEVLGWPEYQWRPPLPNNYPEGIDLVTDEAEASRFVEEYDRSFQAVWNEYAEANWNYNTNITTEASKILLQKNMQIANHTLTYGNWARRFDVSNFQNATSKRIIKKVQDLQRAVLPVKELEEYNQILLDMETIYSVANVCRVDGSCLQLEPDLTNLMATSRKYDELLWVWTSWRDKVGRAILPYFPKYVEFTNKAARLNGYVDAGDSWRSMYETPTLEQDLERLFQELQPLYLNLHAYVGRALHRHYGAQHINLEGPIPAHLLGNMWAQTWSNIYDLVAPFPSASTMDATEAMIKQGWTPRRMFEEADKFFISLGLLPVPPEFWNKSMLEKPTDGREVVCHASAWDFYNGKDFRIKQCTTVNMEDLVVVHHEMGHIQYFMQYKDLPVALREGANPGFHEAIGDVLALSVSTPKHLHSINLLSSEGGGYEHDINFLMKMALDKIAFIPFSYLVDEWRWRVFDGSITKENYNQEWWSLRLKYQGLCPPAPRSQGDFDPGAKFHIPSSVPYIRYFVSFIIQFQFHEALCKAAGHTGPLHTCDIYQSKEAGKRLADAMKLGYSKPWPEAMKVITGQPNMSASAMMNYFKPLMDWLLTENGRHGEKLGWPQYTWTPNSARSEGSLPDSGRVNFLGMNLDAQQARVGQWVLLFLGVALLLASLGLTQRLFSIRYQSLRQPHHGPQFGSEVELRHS
The test is described as follows: In vitro assay of ACE inhibitory activity (HHL substrate, HPLC of hippuric acid). The test is classed as biochemical, rabbit. The conditions noted are these: for inhibition at 86.57 µM: 86.57 μmol/L; for inhibition at 86.57 µM / inhibition at 173.13 µM / inhibition at 346.26 µM / inhibition at 692.52 µM / inhibition at 2770.08 µM: read-out: ACE inhibitory activities (%); for inhibition at 173.13 µM: 173.13 μmol/L; for inhibition at 346.26 µM: 346.26 μmol/L; for inhibition at 692.52 µM: 692.52 μmol/L; for inhibition at 2770.08 µM: 2770.08 μmol/L. The protocol:
WSPM prepared in our previous work (Sun et al. [2022]) and stored at − 20 °C after freeze-drying was used for this study. ACE (1U, derived from rabbit lung, CAS […]), Hippuryl-L-histidyl-L-leucine (HHL, CAS […]), and hippuric acid (HA, CAS 495-69-2) were obtained from Sigma-Aldrich Co. (St. Louis, MO, USA). The reagents used for HPLC analysis were all HPLC grade, and all other reagents used were analytical grade. The amounts of each protein were quantified using the BCA Protein Assay Kit (Bio-Rad, USA). All the protein samples were packed separately and stored at − 80 °C.
In vitro assay of ACE inhibitory activities of the selected peptides ACE inhibitory activity was evaluated in vitro according to previous methods with some modifications (Liao et al. [2018]; Xie et al. [2022]). All of the assays were carried out in 0.1 mol/L sodium borate buffer (containing 0.3 mol/L NaCl at pH 8.3). For each peptide of interest, 40 µL ACE solution (100 mU/mL) was pre-incubated with the peptide (60 µL) at 37 °C for 10 min. Next, 40 µL HHL solution (5.40 mmol/L) was added to the solution at 37 °C, and the reaction was allowed to proceed for 15 min at 37 °C. Finally, 60 µL 1 mol/L HCl was added to terminate the reaction. A borate buffer only control processed using the above procedure was also included for use as a blank. To quantify the amount of HA (hippuric acid) generated, 20 µL of reaction solution (pre-filtered using a 0.45 µm microporous membrane) was analyzed by HPLC (Waters e2695, Milford, USA) on a C18 column (150 × 4.6 mm, 5 µm; ThermoFisher Scientific, USA). The run conditions were as follows: mobile phase, methanol/water/phosphoric acid solution (15:84.9:0.1, V/V/V); flow rate, 1.0 mL/min; UV detection wavelength, 228 nm. All experiments were conducted in triplicate. ACE inhibitory activity was calculated according to the following equation:1 ACE inhibitory activity\%=B-A/B×100\% where A represents the peak area of HA in the sample, and B represents the peak area of HA in the blank.

Test [2] deals with ACE. The conditions noted are these: cited from earlier work. The procedure:
The kinetics of IEWEF inhibition of ACE were determined by Lineweaver–Burk plot (Fig. 1). […] We speculate that IEWEF interacts with the non-active domain of ACE to form an enzyme-inhibitor complex even in the presence of substrate (Xie et al. [2022]). A number of non-competitive ACE inhibitory peptides have been reported in recent years, including GVSLPEW, GYGGVSLPEW, and VGINYW from α-lactalbumin (W ...

The subject of test [3] is ACE. The conditions noted are these: at 0.5 mg/mL; ref Girgih et al. [2014]; cited from earlier work. The protocol:
This is within the range (0.3 ~ 1000.0 µM) known to reduce blood pressure (Chen et al. [2022]). There are several reported ACE inhibitory peptides similar to IEWEF in their amino acid compositions, including IE, EW, IEW, EF, LEF and IEEAF. The peptides IE and EW are both ACE inhibitory peptides isolated from milk hydrolysates, although their IC50 values have not been reported thus far (van Platerink et al. [2008]).

[4] abbreviates: from α-lactalbumin, ref Wei et al. [2022].
Where [5] appears, read: from Carapax Trionycis, ref Liao et al. [2018].

As usually defined, the IC50 is the concentration that inhibits the measured activity by half. For `CC[C@H](C)[C@H](N)C(=O)N[C@@H](CCC(=O)O)C(=O)N[C@@H](Cc1c[nH]c2ccccc12)C(=O)N[C@@H](CCC(=O)O)C(=O)N[C@@H](Cc1ccccc1)C(=O)O` [IEWEF, Ile-Glu-Trp-Glu-Phe] (H-IEWEF-OH), on ACE [1] (replicate 1), the inhibition at 86.57 µM stood at 58.4%, the inhibition at 173.13 µM came to 65.3%, the inhibition at 346.26 µM was 72.2% and the inhibition at 692.52 µM worked out at 66.8%. For the same compound, the inhibition at 2770.08 µM on ACE [1] (replicate 1) is 91.2%. At ACE [1] (replicate 2), the inhibition at 86.57 µM is 57.8%, the inhibition at 173.13 µM was 59.3%, the inhibition at 346.26 µM was 69.3% and the inhibition at 692.52 µM was 74.4%. On ACE [1] (replicate 2), the inhibition at 2770.08 µM is 91%. Also, on ACE [1] (replicate 3), the inhibition at 86.57 µM was determined as 57.9%, the inhibition at 173.13 µM came out at 65%, the inhibition at 346.26 µM is 70.5% and the inhibition at 692.52 µM was 74.5%. Moreover, the inhibition at 2770.08 µM at ACE [1] (replicate 3) worked out at 91%. Moreover, on ACE [1] (ACE 100 mU/mL from rabbit lung, HHL 5.40 mmol/L, 0.1 mol/L sodium borate buffer with 0.3 mol/L NaCl pH 8.3, 10 min pre-incubation, 15 min at 37 °C, HPLC-UV 228 nm, mean ± SD, n = 3, read-out: IC50 value against ACE), the IC50 worked out at 41.3 µM.
On to GVSLPEW, for which the Inhibition mode result in the test with ACE [2] (setting [4]) is on record as “non-competitive”.
As to GYGGVSLPEW, in the test with ACE [2] (setting [4]), the Inhibition mode result was “non-competitive”.
Turning to IEEAF, the “Inhibitory activity against ACE” value in the test with ACE [3] is recorded as “around 40%”.
Take KHMFK: in the test with ACE [2] (setting [5]), the Inhibition mode entry is “non-competitive”.
KIGSRSRFEVT: the Inhibition mode result in the test on ACE [2] (from the shiitake mushroom, ref Paisansak et al. [2021]) is on record as “non-competitive”.
On to KRER, for which the Inhibition mode entry with ACE [2] (setting [5]) is on record as “non-competitive”.
Turning to LLYQEPLGPVR, in the test with ACE [2] (from casein hydrolysate, ref Liu et al. [2020]), the Inhibition mode entry is on record as “non-competitive”.
On to PPLLFAAL, for which the Inhibition mode entry with ACE [2] (from Takifugu flavidus, ref Su et al. [2021]) is given as “non-competitive”.
Regarding VGINYW, in the test with ACE [2] (setting [4]), the Inhibition mode entry is given as “non-competitive”.
On to WGAP, for which the Inhibition mode entry in the test with ACE [2] (from rabbit meat, ref Chen et al. [2021]) is listed as “non-competitive”.
